Results on one molecule are retold here after paper PMC8877008, “Synthesis and Structure–Activity Relationship Studies of Benzimidazole-4,7-dione-Based P2X3 Receptor Antagonists as Novel Anti-Nociceptive Agents” (Molecules, 2022).

Holding throughout (type): in vitro ADME
The nature of series [1]: Metabolic stability in microsomal fraction, mouse.
Another series addresses T1, CYP 1A2 (Homo sapiens, UniProt P05177).
T1 sequence (P05177 1-516): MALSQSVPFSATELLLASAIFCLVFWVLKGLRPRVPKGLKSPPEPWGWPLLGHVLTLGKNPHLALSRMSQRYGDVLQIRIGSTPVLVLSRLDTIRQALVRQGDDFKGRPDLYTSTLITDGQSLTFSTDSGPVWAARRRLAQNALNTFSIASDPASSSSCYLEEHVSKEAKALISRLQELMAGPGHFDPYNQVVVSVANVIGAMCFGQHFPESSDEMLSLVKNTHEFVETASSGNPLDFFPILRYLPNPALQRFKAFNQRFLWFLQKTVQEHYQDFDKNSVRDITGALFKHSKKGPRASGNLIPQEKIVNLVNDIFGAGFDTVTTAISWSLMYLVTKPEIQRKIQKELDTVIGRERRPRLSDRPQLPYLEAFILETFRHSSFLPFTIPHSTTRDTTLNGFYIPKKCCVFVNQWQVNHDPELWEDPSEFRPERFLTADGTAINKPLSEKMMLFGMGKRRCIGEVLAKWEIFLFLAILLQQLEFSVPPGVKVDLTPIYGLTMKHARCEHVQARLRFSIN
Kind of series: CYP450 inhibition 1A2. The conditions noted are these: compound 10 μM.

The next series is described as follows: BBB-PAMPA permeability. The conditions noted are these: UV/vis spectrophotometry.

Like-named read-outs stand apart in the source and are kept apart here.

As for `O=C1C(NC2CCN(C(=O)c3ccc(F)c(F)c3)CC2)=C(Cl)C(=O)c2[nH]c(C(F)(F)F)nc21` [14h, 6-Chloro-5-((1-(3,4-difluorobenzoyl)piperidin-4-yl)amino)-2-(trifluoromethyl)-1H-benzo[d]imidazole-4,7-dione], the amount remaining at 0.5 h in series [1] (microsomal fraction, species not given, lowest of human, rat, mouse is mouse, read-out: Metabolic stability, % remaining after 30 min incubation (summary)) was over 92%; in series [1] (mouse, mouse microsomal fraction, read-out: Metabolic Stability (Microsomal Fr.) % remaining after 30 min), 92.8%. Besides, the “CYP450 inhibition 1A2” value on CYP 1A2 is listed as 6.78%. Besides, in the series “BBB-PAMPA permeability”, the “BBB-PAMPA logPe” value is under −6.000 logPe.
